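Where inhibition never reached the appropriate level, the endpoint shown equals the highest concentration tested. Otherwise, values were interpolated linearly from a five-concentration, 48-hour dose response in 96-well plates. At the TGI there is no net growth.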
Columns and labels:
Experiment in all cases: growth of human tumour cells (NCI), 48 h
786-0 renal = system: 786-0 renal
A498 renal = system: A498 renal
A549 NSCLC = system: A549 NSCLC
ACHN renal = system: ACHN renal
BT-549 breast = system: BT-549 breast
CAKI-1 renal = system: CAKI-1 renal
CCRF-CEM leukemia = system: CCRF-CEM leukemia
COLO 205 colon = system: COLO 205 colon
DU-145 prostate = system: DU-145 prostate
EKVX NSCLC = system: EKVX NSCLC
HCC-2998 colon = system: HCC-2998 colon
HCT-116 colon = system: HCT-116 colon
HCT-15 colon = system: HCT-15 colon
HL-60(TB) leukemia = system: HL-60(TB) leukemia
HOP-62 NSCLC = system: HOP-62 NSCLC
HOP-92 NSCLC = system: HOP-92 NSCLC
HS 578T breast = system: HS 578T breast
HT29 colon = system: HT29 colon
IGROV1 ovarian = system: IGROV1 ovarian
K-562 leukemia = system: K-562 leukemia
KM12 colon = system: KM12 colon
LOX IMVI melanoma = system: LOX IMVI melanoma
M14 melanoma = system: M14 melanoma
MALME-3M melanoma = system: MALME-3M melanoma
MCF7 breast = system: MCF7 breast
MDA-MB-231 breast = system: MDA-MB-231 breast
MDA-MB-435 = system: MDA-MB-435
MDA-N = system: MDA-N
MOLT-4 leukemia = system: MOLT-4 leukemia
NCI-H226 lung = system: NCI-H226 lung
NCI-H23 lung = system: NCI-H23 lung
NCI-H460 lung = system: NCI-H460 lung
NCI-H522 lung = system: NCI-H522 lung
NCI/ADR-RES ovarian = system: NCI/ADR-RES ovarian
OVCAR-3 ovarian = system: OVCAR-3 ovarian
OVCAR-4 ovarian = system: OVCAR-4 ovarian
OVCAR-5 ovarian = system: OVCAR-5 ovarian
OVCAR-8 ovarian = system: OVCAR-8 ovarian
PC-3 prostate = system: PC-3 prostate
RXF 393 renal = system: RXF 393 renal
SF-268 CNS = system: SF-268 CNS
SF-295 CNS = system: SF-295 CNS
SF-539 CNS = system: SF-539 CNS
SK-MEL-2 melanoma = system: SK-MEL-2 melanoma
SK-MEL-28 melanoma = system: SK-MEL-28 melanoma
SK-MEL-5 melanoma = system: SK-MEL-5 melanoma
SK-OV-3 ovarian = system: SK-OV-3 ovarian
SN12C renal = system: SN12C renal
SNB-19 CNS = system: SNB-19 CNS
SNB-75 CNS = system: SNB-75 CNS
SR leukemia = system: SR leukemia
SW-620 colon = system: SW-620 colon
TK-10 renal = system: TK-10 renal
U251 CNS = system: U251 CNS
UACC-257 melanoma = system: UACC-257 melanoma
UACC-62 melanoma = system: UACC-62 melanoma
UO-31 renal = system: UO-31 renal

Measured: TGI

O=C1NC(O)c2ccccc2O1 (configuration not stated)
> 100 µM: 786-0 renal | A498 renal | A549 NSCLC | ACHN renal | BT-549 breast | CAKI-1 renal | CCRF-CEM leukemia | COLO 205 colon | DU-145 prostate | EKVX NSCLC | HCC-2998 colon | HCT-116 colon | HCT-15 colon | HL-60(TB) leukemia | HOP-62 NSCLC | HOP-92 NSCLC | HS 578T breast | HT29 colon | IGROV1 ovarian | K-562 leukemia | KM12 colon | LOX IMVI melanoma | M14 melanoma | MALME-3M melanoma | MCF7 breast | MDA-MB-231 breast | MDA-MB-435 | MDA-N | MOLT-4 leukemia | NCI-H226 lung | NCI-H23 lung | NCI-H460 lung | NCI-H522 lung | NCI/ADR-RES ovarian | OVCAR-3 ovarian | OVCAR-4 ovarian | OVCAR-5 ovarian | OVCAR-8 ovarian | PC-3 prostate | RXF 393 renal | SF-268 CNS | SF-295 CNS | SF-539 CNS | SK-MEL-2 melanoma | SK-MEL-28 melanoma | SK-MEL-5 melanoma | SK-OV-3 ovarian | SN12C renal | SNB-19 CNS | SNB-75 CNS | SR leukemia | SW-620 colon | TK-10 renal | U251 CNS | UACC-257 melanoma | UACC-62 melanoma | UO-31 renal

Reference: PubChem BioAssay (NCI)
